Earlier results as cited in US12054562B2, “Cell-permeable inhibitory agent and methods of use thereof in treatment of cognitive and mood disorders” (priority 2015, dated 2024).

Columns and labels:
α5GABAA receptor [1] = target: T1, α5GABAA receptor (Homo sapiens, UniProt P18507+P31644); settings: cited from earlier work
T1 sequence (P31644 32-462): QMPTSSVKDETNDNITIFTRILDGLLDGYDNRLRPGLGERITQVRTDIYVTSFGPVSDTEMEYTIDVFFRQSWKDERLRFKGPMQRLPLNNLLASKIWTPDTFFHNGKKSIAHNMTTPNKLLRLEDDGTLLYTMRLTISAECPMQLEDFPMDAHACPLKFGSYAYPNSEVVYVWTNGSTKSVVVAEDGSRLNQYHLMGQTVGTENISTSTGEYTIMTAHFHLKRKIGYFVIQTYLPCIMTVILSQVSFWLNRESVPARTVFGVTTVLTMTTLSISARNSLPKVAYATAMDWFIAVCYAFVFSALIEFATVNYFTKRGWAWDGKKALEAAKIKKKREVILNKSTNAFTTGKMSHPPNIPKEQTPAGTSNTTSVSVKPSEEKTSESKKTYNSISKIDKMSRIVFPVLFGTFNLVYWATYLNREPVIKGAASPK
T1 sequence (P18507 40-467 limits assumed): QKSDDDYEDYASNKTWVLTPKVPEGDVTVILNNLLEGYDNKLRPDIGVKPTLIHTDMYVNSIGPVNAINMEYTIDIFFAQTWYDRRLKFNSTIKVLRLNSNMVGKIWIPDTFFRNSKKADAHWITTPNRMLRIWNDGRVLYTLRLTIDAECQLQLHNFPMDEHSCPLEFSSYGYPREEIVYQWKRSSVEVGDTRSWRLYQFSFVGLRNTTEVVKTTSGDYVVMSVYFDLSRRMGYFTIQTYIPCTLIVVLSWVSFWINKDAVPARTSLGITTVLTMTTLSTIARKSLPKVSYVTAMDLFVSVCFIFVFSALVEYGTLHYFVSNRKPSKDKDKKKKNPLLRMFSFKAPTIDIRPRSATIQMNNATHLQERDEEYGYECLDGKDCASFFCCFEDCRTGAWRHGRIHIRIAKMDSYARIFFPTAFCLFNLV
T1 sequence (P28472 26-473 partner): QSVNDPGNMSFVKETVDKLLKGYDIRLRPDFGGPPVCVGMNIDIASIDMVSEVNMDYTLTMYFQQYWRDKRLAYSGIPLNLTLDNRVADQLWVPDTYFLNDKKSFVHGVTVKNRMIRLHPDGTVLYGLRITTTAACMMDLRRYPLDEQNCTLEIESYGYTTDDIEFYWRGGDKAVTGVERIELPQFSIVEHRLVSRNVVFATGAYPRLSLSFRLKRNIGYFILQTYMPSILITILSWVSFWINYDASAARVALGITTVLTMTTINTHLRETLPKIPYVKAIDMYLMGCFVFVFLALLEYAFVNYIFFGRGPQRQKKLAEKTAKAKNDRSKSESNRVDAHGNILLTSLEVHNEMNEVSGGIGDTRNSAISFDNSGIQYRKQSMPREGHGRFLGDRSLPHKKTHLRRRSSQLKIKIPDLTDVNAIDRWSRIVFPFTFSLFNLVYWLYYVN

α5GABAA receptor [2] = target: T1, α5GABAA receptor; settings: cited from earlier work; remark: listed apart in the source
healthy subjects = settings: cited from earlier work
[3] = target: T2, al subunit-containing GABAA receptors (Homo sapiens, UniProt P14867+P18507); settings: at high concentrations; cited from earlier work
T2 sequence (P14867 28-456): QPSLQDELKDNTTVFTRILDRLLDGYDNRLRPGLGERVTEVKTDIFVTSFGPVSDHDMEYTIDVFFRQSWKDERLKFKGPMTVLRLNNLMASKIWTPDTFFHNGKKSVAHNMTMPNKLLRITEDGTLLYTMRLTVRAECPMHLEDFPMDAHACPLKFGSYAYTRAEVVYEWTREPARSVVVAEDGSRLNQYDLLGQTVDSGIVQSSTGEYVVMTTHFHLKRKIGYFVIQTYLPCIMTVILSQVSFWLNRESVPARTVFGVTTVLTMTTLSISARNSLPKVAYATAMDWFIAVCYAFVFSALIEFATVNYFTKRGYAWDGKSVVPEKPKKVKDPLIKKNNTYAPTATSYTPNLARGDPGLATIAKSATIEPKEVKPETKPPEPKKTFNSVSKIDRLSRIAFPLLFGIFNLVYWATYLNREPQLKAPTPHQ
T2 sequence (P18507 40-467 limits assumed): T1 sequence (P18507 40-467 limits assumed)
T2 sequence (P28472 26-473 partner): T1 sequence (P28472 26-473 partner)

patients = settings: cited from earlier work

## CCOC(=O)c1ncn2c1[C@@H]1CCCN1C(=O)c1cc(OC)ccc1-2 [L-655,708]
α5GABAA receptor [1]
  selectivity for α5GABAA receptors: 30-70 fold
α5GABAA receptor [2]
  efficacy for reducing α5GABAA receptor function: relatively low efficacy

## Cc1cc(-c2nnc3c4ccccc4c(OCc4cn(C)nn4)nn23)no1 [α5IA]
Healthy subjects
  ethanol-induced impaired performance: improves
[3]
  action on al subunit-containing GABAA receptors: activates
patients
  reason clinical trial was stopped: renal toxicity
